Assay results reported in article PMC3961306, “Comparison of the Cancer Gene Targeting and Biochemical Selectivities of All Targeted Kinase Inhibitors Approved for Clinical Use” (PLoS ONE, 2014).
Where two headings read alike, the source gives them in different places.

Tests used:
[1] = system: forty-four human cancer cell lines; assay: Cell proliferation assay (ATPlite, 72 hours) in the 44 cell line Oncolines panel; type: cell-based; settings: Homo sapiens
[2] = biological target: panel of more than 300 wild-type and mutant kinases (313 kinase panel) (Homo sapiens, UniProt P04049); assay: Kinase profiling in a biochemical assay panel (mobility shift assays and ELISA), %-inhibition at 1 μM; selectivity entropy; settings: kinase RAF1; 1 μM
[3] = biological target: T1, panel of more than 300 wild-type and mutant kinases (313 kinase panel) (Homo sapiens, UniProt Q9UL54); assay: as above; settings: kinase TAOK2; 1 μM
T1 sequence (Q9UL54 1-1235): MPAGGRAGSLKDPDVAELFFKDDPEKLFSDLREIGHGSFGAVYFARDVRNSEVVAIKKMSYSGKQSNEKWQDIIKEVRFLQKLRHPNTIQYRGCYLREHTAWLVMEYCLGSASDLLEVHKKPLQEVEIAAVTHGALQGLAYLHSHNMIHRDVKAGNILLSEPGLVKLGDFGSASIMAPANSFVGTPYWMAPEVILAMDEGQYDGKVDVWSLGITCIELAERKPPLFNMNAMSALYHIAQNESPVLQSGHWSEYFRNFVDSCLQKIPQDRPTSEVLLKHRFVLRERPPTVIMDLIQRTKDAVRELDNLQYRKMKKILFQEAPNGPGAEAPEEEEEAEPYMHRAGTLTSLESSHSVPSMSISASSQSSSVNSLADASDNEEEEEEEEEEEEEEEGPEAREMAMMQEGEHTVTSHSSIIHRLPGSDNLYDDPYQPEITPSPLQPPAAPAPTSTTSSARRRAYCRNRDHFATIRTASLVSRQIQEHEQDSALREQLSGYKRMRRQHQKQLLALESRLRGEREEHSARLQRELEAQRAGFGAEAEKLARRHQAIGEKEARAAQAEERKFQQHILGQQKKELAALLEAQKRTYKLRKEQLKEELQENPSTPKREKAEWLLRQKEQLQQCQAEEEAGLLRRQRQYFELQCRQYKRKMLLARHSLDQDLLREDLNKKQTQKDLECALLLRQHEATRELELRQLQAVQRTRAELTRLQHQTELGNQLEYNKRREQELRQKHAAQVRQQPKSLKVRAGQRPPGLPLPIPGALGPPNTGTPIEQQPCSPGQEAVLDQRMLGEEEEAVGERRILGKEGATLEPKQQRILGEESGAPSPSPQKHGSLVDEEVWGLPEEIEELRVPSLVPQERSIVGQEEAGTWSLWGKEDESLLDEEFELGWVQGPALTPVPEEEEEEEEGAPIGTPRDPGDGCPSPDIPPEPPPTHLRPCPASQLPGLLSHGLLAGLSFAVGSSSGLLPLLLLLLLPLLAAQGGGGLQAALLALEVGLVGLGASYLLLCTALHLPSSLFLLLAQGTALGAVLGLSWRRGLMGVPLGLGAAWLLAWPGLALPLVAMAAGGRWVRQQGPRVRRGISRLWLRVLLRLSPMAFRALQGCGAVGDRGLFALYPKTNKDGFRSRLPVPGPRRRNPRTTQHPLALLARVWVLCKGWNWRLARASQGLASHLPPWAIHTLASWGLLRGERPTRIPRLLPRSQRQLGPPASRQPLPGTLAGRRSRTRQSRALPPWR

[4] = biological target: panel of more than 300 wild-type and mutant kinases (313 kinase panel) (Homo sapiens, UniProt P10721, T670I); assay: as above; settings: kinase KIT(T670I); compound at 1 μM
[5] = biological target: panel of more than 300 wild-type and mutant kinases (313 kinase panel) (Homo sapiens, UniProt P22612); assay: as above; settings: kinase PKACγ; 1 μM
[6] = biological target: panel of more than 300 wild-type and mutant kinases (313 kinase panel) (Homo sapiens, UniProt Q8N4C8); assay: as above; settings: kinase MINK; 1 μM
[7] = biological target: panel of more than 300 wild-type and mutant kinases (313 kinase panel) (Homo sapiens, UniProt Q9HC98); assay: as above
[8] = 4-4 cell, read-out: cell panel IC50, J82
[9] = 4-4 cell, read-out: cell panel IC50, PA-1
[10] = 4-4 cell, read-out: cell panel IC50, SJCRH30
[11] = 4-4 cell, read-out: cell panel IC50, SR
[12] = 769-P, read-out: cell panel IC50, 769-P
[13] = 786-0, read-out: cell panel IC50, 786-0
[14] = A 172, read-out: cell panel IC50, A-172
[15] = A204, read-out: cell panel IC50, A-204
[16] = A498, read-out: cell panel IC50, A-498
[17] = A549, read-out: cell panel IC50, A-549
[18] = A-375, read-out: cell panel IC50, A375
[19] = A-427, read-out: cell panel IC50, A-427
[20] = ACHN, read-out: cell panel IC50, ACHN
[21] = AN3-CA, read-out: cell panel IC50, AN3 CA
[22] = AU565, read-out: cell panel IC50, AU-565
[23] = BT-20, read-out: cell panel IC50, BT-20
[24] = BT-549, read-out: cell panel IC50, BT-549
[25] = BXPC-3, read-out: cell panel IC50, BxPC-3
[26] = C-33-A, read-out: cell panel IC50, C-33 A
[27] = CAL-27, read-out: cell panel IC50, CAL 27
[28] = CCRF-CEM, read-out: cell panel IC50, CCRF-CEM
[29] = DLD-1, read-out: cell panel IC50, DLD-1
[30] = FaDu, read-out: cell panel IC50, FaDu
[31] = HCT-15, read-out: cell panel IC50, HCT-15
[32] = HCT-116, read-out: cell panel IC50, HCT-116
[33] = Hs-578T, read-out: cell panel IC50, Hs 578T
[34] = Jurkat E6.1, read-out: cell panel IC50, Jurkat E6.1
[35] = K562, read-out: cell panel IC50, K-562
[36] = LS174T, read-out: cell panel IC50, LS 174T
[37] = LoVo, read-out: cell panel IC50, LoVo
[38] = MG-63, read-out: cell panel IC50, MG-63
[39] = MOLT-4, read-out: cell panel IC50, MOLT-4
[40] = NCI-H82, read-out: cell panel IC50, NCI-H82
[41] = NCI-H460, read-out: cell panel IC50, NCI-H460
[42] = OVCAR-3, read-out: cell panel IC50, OVCAR-3
[43] = RPMI-7951, read-out: cell panel IC50, RPMI-7951
[44] = SHP77, read-out: cell panel IC50, SHP-77
[45] = SK-N-AS, read-out: cell panel IC50, SK-N-AS
[46] = SW48, read-out: cell panel IC50, SW48
[47] = SW480, read-out: cell panel IC50, SW480
[48] = SW-620, read-out: cell panel IC50, SW620
[49] = U2OS, read-out: cell panel IC50, U-2 OS
[50] = U-87 MG, 72 h, read-out: IC50 in cell proliferation assay (table S5 cellpanel data)

panel of more than 300 wild-type and mutant kinases (313 kinase panel) (Homo sapiens, UniProt P04049), sequence (P04049 whole entry, change not shown): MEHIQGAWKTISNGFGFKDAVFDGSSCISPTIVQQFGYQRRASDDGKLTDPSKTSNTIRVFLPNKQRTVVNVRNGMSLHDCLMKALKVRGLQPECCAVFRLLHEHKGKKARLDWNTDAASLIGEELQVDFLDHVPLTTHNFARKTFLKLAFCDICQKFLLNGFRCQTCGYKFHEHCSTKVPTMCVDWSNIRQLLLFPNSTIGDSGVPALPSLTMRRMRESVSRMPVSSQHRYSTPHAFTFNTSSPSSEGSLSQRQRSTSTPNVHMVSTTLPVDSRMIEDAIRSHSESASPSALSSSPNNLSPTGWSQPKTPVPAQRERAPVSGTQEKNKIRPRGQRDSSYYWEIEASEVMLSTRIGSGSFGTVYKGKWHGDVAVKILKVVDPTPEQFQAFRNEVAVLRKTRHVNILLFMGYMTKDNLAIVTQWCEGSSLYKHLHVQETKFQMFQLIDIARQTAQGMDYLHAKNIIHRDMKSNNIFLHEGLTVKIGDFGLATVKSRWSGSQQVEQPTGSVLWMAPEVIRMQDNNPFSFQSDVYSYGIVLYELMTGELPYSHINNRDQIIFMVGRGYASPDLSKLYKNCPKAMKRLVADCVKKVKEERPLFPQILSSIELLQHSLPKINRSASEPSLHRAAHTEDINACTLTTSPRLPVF
panel of more than 300 wild-type and mutant kinases (313 kinase panel) (Homo sapiens, UniProt P10721, T670I), sequence (P10721 26-976 T670I): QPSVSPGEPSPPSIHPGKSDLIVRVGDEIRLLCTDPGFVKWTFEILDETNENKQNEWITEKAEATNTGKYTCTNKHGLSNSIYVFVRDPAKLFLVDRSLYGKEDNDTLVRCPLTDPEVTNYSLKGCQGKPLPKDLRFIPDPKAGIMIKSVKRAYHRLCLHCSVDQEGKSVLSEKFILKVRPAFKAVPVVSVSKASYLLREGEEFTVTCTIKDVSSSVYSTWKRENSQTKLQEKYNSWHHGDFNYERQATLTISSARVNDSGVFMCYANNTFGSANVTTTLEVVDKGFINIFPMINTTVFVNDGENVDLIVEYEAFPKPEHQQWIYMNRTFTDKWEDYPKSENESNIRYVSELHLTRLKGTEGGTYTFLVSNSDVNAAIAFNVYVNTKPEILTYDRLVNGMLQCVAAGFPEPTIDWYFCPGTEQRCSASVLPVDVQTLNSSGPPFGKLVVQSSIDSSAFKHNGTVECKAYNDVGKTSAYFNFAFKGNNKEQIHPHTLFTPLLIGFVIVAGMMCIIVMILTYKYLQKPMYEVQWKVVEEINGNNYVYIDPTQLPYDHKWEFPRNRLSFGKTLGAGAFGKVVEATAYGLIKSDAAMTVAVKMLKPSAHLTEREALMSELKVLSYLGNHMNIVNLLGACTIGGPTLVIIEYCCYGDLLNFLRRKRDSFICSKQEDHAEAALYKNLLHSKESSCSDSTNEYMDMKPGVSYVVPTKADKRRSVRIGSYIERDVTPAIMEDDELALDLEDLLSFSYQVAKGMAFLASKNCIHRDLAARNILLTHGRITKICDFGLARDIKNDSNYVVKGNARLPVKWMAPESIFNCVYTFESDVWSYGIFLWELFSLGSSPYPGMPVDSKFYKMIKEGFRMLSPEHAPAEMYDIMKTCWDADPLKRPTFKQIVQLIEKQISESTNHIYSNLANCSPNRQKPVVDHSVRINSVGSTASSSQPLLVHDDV
panel of more than 300 wild-type and mutant kinases (313 kinase panel) (Homo sapiens, UniProt Q8N4C8), sequence (Q8N4C8 whole entry, change not shown): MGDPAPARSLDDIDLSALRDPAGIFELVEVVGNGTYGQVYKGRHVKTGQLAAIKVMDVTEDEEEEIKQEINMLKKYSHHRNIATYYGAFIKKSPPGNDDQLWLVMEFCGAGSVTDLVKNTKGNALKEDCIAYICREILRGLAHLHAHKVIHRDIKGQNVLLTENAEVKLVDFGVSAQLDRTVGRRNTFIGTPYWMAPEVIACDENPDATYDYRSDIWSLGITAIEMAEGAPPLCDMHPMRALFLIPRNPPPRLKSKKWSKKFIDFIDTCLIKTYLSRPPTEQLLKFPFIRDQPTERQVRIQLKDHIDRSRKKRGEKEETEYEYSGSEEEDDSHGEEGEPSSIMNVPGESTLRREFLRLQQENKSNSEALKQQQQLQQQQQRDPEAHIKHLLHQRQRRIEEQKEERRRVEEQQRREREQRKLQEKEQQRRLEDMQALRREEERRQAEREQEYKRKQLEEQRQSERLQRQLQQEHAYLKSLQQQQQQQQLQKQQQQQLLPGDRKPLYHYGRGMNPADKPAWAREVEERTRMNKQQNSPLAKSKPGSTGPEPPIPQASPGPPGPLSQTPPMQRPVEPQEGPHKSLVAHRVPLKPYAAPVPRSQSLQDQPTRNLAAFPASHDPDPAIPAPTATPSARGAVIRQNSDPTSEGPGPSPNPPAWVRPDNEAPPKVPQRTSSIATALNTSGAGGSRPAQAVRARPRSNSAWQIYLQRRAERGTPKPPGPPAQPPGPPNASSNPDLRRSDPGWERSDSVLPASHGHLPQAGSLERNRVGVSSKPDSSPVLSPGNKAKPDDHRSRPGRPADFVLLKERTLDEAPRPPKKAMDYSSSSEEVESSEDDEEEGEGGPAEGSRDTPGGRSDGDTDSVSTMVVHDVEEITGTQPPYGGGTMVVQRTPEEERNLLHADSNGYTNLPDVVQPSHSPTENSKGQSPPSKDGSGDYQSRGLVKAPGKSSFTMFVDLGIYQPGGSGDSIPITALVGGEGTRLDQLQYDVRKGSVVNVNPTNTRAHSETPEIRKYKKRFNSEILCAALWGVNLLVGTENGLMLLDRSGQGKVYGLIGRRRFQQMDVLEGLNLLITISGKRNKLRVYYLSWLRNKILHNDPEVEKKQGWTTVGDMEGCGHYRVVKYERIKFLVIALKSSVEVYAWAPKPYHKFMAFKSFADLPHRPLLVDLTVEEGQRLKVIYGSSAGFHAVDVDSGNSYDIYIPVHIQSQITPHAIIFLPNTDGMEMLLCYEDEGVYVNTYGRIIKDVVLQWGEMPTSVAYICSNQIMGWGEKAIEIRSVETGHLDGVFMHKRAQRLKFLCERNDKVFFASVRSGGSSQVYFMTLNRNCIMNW

## COc1cc(Nc2c(C#N)cnc3cc(OCCCN4CCN(C)CC4)c(OC)cc23)c(Cl)cc1Cl [bosutinib]
[1]; [8]
  IC50: 4470 nM
[1]; [9]
  IC50: 1260 nM
[1]; [10]
  IC50: 4390 nM
[1]; [11]
  IC50: 983 nM
[1]; [12]
  IC50: 1240 nM
[1]; [13]
  IC50: 2200 nM
[1]; [14]
  IC50: 3690 nM
[1]; [15]
  IC50: 5690 nM
[1]; [16]
  IC50: 1510 nM
[1]; [17]
  IC50: 2380 nM
[1]; [18]
  IC50: 2000 nM
[1]; [19]
  IC50: 2320 nM
[1]; [20]
  IC50: 808 nM
[1]; [21]
  IC50: 8020 nM
[1]; [22]
  IC50: 4030 nM
[1]; [23]
  IC50: 9000 nM
[1]; [24]
  IC50: 4940 nM
[1]; [25]
  IC50: 2740 nM
[1]; [26]
  IC50: 108 nM
[1]; [27]
  IC50: 1690 nM
[1]; [28]
  IC50: 3550 nM
[1]; [29]
  IC50: 2250 nM
[1]; [30]
  IC50: 1930 nM
[1]; [31]
  IC50: 2050 nM
[1]; [32]
  IC50: 2900 nM
[1]; [33]
  IC50: 3630 nM
[1]; [34]
  IC50: 466 nM
[1]; [35]
  IC50: 14 nM
[1]; [36]
  IC50: 1180 nM
[1]; [37]
  IC50: 811 nM
[1]; [38]
  IC50: 4210 nM
[1]; [39]
  IC50: 1290 nM
[1]; MeWo, read-out: cell panel IC50, MeWo
  IC50: 5600 nM
[1]; [40]
  IC50: 3500 nM
[1]; [41]
  IC50: 3720 nM
[1]; [42]
  IC50: 3030 nM
[1]; [43]
  IC50: 3230 nM
[1]; [44]
  IC50: 11500 nM
[1]; [45]
  IC50: 923 nM
[1]; [46]
  IC50: 11700 nM
[1]; [47]
  IC50: 10500 nM
[1]; [48]
  IC50: 10600 nM
[1]; [49]
  IC50: 2620 nM
[1]; [50]
  IC50: 6950 nM
[2]
  %-inhibition of RAF1: -3%
[3]
  %-inhibition of TAOK2: 10%
[4]
  %-inhibition of KIT(T670I): 7%
[5]
  %-inhibition of PKACγ: 53%
[6]
  %-inhibition of MINK: 100%
[7]; 1 µM
  %-inhibition of NEK6: -6%

## C[C@@H](Oc1cc(-c2cnn(C3CCNCC3)c2)cnc1N)c1c(Cl)ccc(F)c1Cl [crizotinib]
[1]; [8]
  IC50: 5230 nM
[1]; [9]
  IC50: 888 nM
[1]; [10]
  IC50: 1090 nM
[1]; [11]
  IC50: 44 nM
[1]; [12]
  IC50: 2960 nM
[1]; [13]
  IC50: 3880 nM
[1]; [14]
  IC50: 1700 nM
[1]; [15]
  IC50: 2460 nM
[1]; [16]
  IC50: 2240 nM
[1]; [17]
  IC50: 1180 nM
[1]; [18]
  IC50: 1080 nM
[1]; [19]
  IC50: 672 nM
[1]; [20]
  IC50: 2240 nM
[1]; [21]
  IC50: 1720 nM
[1]; [22]
  IC50: 7790 nM
[1]; [23]
  IC50: 12700 nM
[1]; [24]
  IC50: 4890 nM
[1]; [25]
  IC50: 1390 nM
[1]; [26]
  IC50: 3040 nM
[1]; [27]
  IC50: 1820 nM
[1]; [28]
  IC50: 567 nM
[1]; [29]
  IC50: 3000 nM
[1]; [30]
  IC50: 5340 nM
[1]; [31]
  IC50: 4840 nM
[1]; [32]
  IC50: 1690 nM
[1]; [33]
  IC50: 2750 nM
[1]; [34]
  IC50: 1110 nM
[1]; [35]
  IC50: 252 nM
[1]; [36]
  IC50: 842 nM
[1]; [37]
  IC50: 658 nM
[1]; [38]
  IC50: 1730 nM
[1]; [39]
  IC50: 347 nM
[1]; [40]
  IC50: 854 nM
[1]; [41]
  IC50: 1150 nM
[1]; [42]
  IC50: 4560 nM
[1]; [43]
  IC50: 1530 nM
[1]; [44]
  IC50: 3120 nM
[1]; [45]
  IC50: 1310 nM
[1]; [46]
  IC50: 1960 nM
[1]; [47]
  IC50: 3610 nM
[1]; [48]
  IC50: 1330 nM
[1]; [49]
  IC50: 1980 nM
[1]; [50]
  IC50: 3910 nM
[2]
  %-inhibition of RAF1: 11%
[3]
  %-inhibition of TAOK2: 33%
[4]
  %-inhibition of KIT(T670I): 64%
[5]
  %-inhibition of PKACγ: -6.52%
[6]
  %-inhibition of MINK: 0%
[7]; kinase NEK6, 1 μM
  %-inhibition of NEK6: -2.72%
